PubChem BioAssay AID2060508 (Molecular Pharmacology Branch, DTP, NCI, 2025)

Test system: 454973-116-R2-J3-PDC spheroids, viability, % test/control
Test: Anticancer human tumor 454973-116-R2-J3-PDC patient-derived pancreatic carcinoma cell line growth inhibition [GQUAD]
Conditions: spheroids with HUVEC and MSC; for IC50: curve of first compound; for viability, T/C: stronger effect = lower value
Method in brief: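 Viability of tumor cells grown as complex spheroids with endothelial and stromal cells, exposed to drug combinations. Top concentration at or near clinical Cmax (else 10 microM), diluted in half-log increments.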

[1] = second compound 0.0316 µM, first compound 0.0316 µM
[2] = second compound 0.0316 µM, first compound 0.1 µM
[3] = second compound 0.0316 µM, first compound 0.316 µM
[4] = second compound 0.0316 µM, first compound 1 µM
[5] = second compound 0.0316 µM, first compound 3.16 µM
[6] = second compound 0.0316 µM, first compound 10 µM
[7] = second compound 0.1 µM, first compound 0.0316 µM
[8] = second compound 0.1 µM, first compound 0.1 µM
[9] = second compound 0.1 µM, first compound 0.316 µM
[10] = second compound 0.1 µM, first compound 1 µM
[11] = second compound 0.1 µM, first compound 3.16 µM
[12] = second compound 0.1 µM, first compound 10 µM
[13] = second compound 0.316 µM, first compound 0.0316 µM
[14] = second compound 0.316 µM, first compound 0.1 µM
[15] = second compound 0.316 µM, first compound 0.316 µM
[16] = second compound 0.316 µM, first compound 1 µM
[17] = second compound 0.316 µM, first compound 3.16 µM
[18] = second compound 0.316 µM, first compound 10 µM
[19] = second compound 1 µM, first compound 0.0316 µM
[20] = second compound 1 µM, first compound 0.1 µM
[21] = second compound 1 µM, first compound 0.316 µM
[22] = second compound 1 µM, first compound 1 µM
[23] = second compound 1 µM, first compound 3.16 µM
[24] = second compound 1 µM, first compound 10 µM
[25] = second compound 3.16 µM, first compound 0.0316 µM
[26] = second compound 3.16 µM, first compound 0.1 µM
[27] = second compound 3.16 µM, first compound 0.316 µM
[28] = second compound 3.16 µM, first compound 1 µM
[29] = second compound 3.16 µM, first compound 3.16 µM
[30] = second compound 3.16 µM, first compound 10 µM
[31] = second compound 10 µM, first compound 0.0316 µM
[32] = second compound 10 µM, first compound 0.1 µM
[33] = second compound 10 µM, first compound 0.316 µM
[34] = second compound 10 µM, first compound 1 µM
[35] = second compound 10 µM, first compound 3.16 µM
[36] = second compound 10 µM, first compound 10 µM
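Further: spheroids exposed to compounds for seven days.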
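Wherever viability, T/C is given: 100% = DMSO vehicle control viability.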

## O=C(NO)c1cnc(N2CCN(S(=O)(=O)c3ccc4ccccc4c3)CC2)nc1 + CN(C)c1ccc(Nc2c3ccc(NC(=O)CCN4CCCC4)cc3nc3cc(NC(=O)CCN4CCCC4)ccc23)cc1
Second compound 0.0316 µM
  IC50: 212 nM
Second compound 0.1 µM
  IC50: 202 nM
Second compound 0.316 µM
  IC50: 197 nM
Second compound 1 µM
  IC50: 195 nM
Second compound 3.16 µM
  IC50: 178 nM
Second compound 10 µM
  IC50: 141 nM
[1]
  viability, T/C: 107%
[2]
  viability, T/C: 89.7%
[3]
  viability, T/C: 28.9%
[4]
  viability, T/C: 3.06%
[5]
  viability, T/C: 0.12%
[6]
  viability, T/C: 1%
[7]
  viability, T/C: 102%
[8]
  viability, T/C: 83.4%
[9]
  viability, T/C: 28.9%
[10]
  viability, T/C: 2.6%
[11]
  viability, T/C: 0.1%
[12]
  viability, T/C: 0.19%
[13]
  viability, T/C: 86%
[14]
  viability, T/C: 83.4%
[15]
  viability, T/C: 26.8%
[16]
  viability, T/C: 3.25%
[17]
  viability, T/C: 0.11%
[18]
  viability, T/C: 0.17%
[19]
  viability, T/C: 81.4%
[20]
  viability, T/C: 77.2%
[21]
  viability, T/C: 30.3%
[22]
  viability, T/C: 3.47%
[23]
  viability, T/C: 0.09%
[24]
  viability, T/C: 0.35%
[25]
  viability, T/C: 77.8%
[26]
  viability, T/C: 70.8%
[27]
  viability, T/C: 29.4%
[28]
  viability, T/C: 2.84%
[29]
  viability, T/C: 0.54%
[30]
  viability, T/C: 0.91%
[31]
  viability, T/C: 59.5%
[32]
  viability, T/C: 55.8%
[33]
  viability, T/C: 34.1%
[34]
  viability, T/C: 2.57%
[35]
  viability, T/C: 0.19%
[36]
  viability, T/C: 0.77%

## CC1COCCN1c1cc(-c2ccnn2C)c2ccnc(-c3ccn[nH]3)c2n1 (stereo not drawn) + Cc1[nH]c2ccc(F)cc2c1-c1nc2c3cccnc3c3ncccc3c2[nH]1
Second compound 0.0316 µM
  IC50: 162 nM
Second compound 0.1 µM
  IC50: 171 nM
Second compound 0.316 µM
  IC50: 168 nM
Second compound 1 µM
  IC50: 158 nM
Second compound 3.16 µM
  IC50: 116 nM
Second compound 10 µM
  IC50: 117 nM
[1]
  viability, T/C: 97.4%
[2]
  viability, T/C: 66.8%
[3]
  viability, T/C: 26.6%
[4]
  viability, T/C: 23.2%
[5]
  viability, T/C: 26.3%
[6]
  viability, T/C: 23.6%
[7]
  viability, T/C: 98.1%
[8]
  viability, T/C: 67.1%
[9]
  viability, T/C: 30.6%
[10]
  viability, T/C: 23.3%
[11]
  viability, T/C: 24%
[12]
  viability, T/C: 26.4%
[13]
  viability, T/C: 97.8%
[14]
  viability, T/C: 65.8%
[15]
  viability, T/C: 31%
[16]
  viability, T/C: 20.6%
[17]
  viability, T/C: 23.4%
[18]
  viability, T/C: 21.9%
[19]
  viability, T/C: 87%
[20]
  viability, T/C: 62%
[21]
  viability, T/C: 32.2%
[22]
  viability, T/C: 18.7%
[23]
  viability, T/C: 20.3%
[24]
  viability, T/C: 22.8%
[25]
  viability, T/C: 92.2%
[26]
  viability, T/C: 52.9%
[27]
  viability, T/C: 30.2%
[28]
  viability, T/C: 20.8%
[29]
  viability, T/C: 23.5%
[30]
  viability, T/C: 24.9%
[31]
  viability, T/C: 81.6%
[32]
  viability, T/C: 53.1%
[33]
  viability, T/C: 29.8%
[34]
  viability, T/C: 18.3%
[35]
  viability, T/C: 23.1%
[36]
  viability, T/C: 22.6%

## CC1COCCN1c1cc(C2(O)CC3CCC(C2)O3)c2cnn(-c3ccn[nH]3)c2n1 (stereo not drawn) + Cc1[nH]c2ccc(F)cc2c1-c1nc2c3cccnc3c3ncccc3c2[nH]1
Second compound 0.0316 µM
  IC50: 155 nM
Second compound 0.1 µM
  IC50: 141 nM
Second compound 0.316 µM
  IC50: 163 nM
Second compound 1 µM
  IC50: 140 nM
Second compound 3.16 µM
  IC50: 143 nM
Second compound 10 µM
  IC50: 115 nM
[1]
  viability, T/C: 95.9%
[2]
  viability, T/C: 62.1%
[3]
  viability, T/C: 29.9%
[4]
  viability, T/C: 21.7%
[5]
  viability, T/C: 24.1%
[6]
  viability, T/C: 12.3%
[7]
  viability, T/C: 87%
[8]
  viability, T/C: 58.9%
[9]
  viability, T/C: 28.9%
[10]
  viability, T/C: 21.3%
[11]
  viability, T/C: 21.8%
[12]
  viability, T/C: 10.4%
[13]
  viability, T/C: 91.6%
[14]
  viability, T/C: 66.4%
[15]
  viability, T/C: 27.7%
[16]
  viability, T/C: 20%
[17]
  viability, T/C: 21.6%
[18]
  viability, T/C: 13.5%
[19]
  viability, T/C: 93.5%
[20]
  viability, T/C: 58.1%
[21]
  viability, T/C: 30.6%
[22]
  viability, T/C: 19.9%
[23]
  viability, T/C: 21.8%
[24]
  viability, T/C: 13.2%
[25]
  viability, T/C: 88.5%
[26]
  viability, T/C: 58.3%
[27]
  viability, T/C: 31.7%
[28]
  viability, T/C: 21.8%
[29]
  viability, T/C: 21.6%
[30]
  viability, T/C: 12.6%
[31]
  viability, T/C: 79.5%
[32]
  viability, T/C: 53.6%
[33]
  viability, T/C: 26.2%
[34]
  viability, T/C: 22.4%
[35]
  viability, T/C: 20.3%
[36]
  viability, T/C: 12.6%

## COc1ccc([C@@H](O)c2cc(-c3ncnc4cc(N5CCOCC5)ccc34)c(F)cc2Cl)nn1 + Cc1[nH]c2ccc(F)cc2c1-c1nc2c3cccnc3c3ncccc3c2[nH]1
Second compound 0.0316 µM
  IC50: 7420 nM
Second compound 0.1 µM
  IC50: > 10000 nM
Second compound 0.316 µM
  IC50: > 10000 nM
Second compound 1 µM
  IC50: 9540 nM
Second compound 3.16 µM
  IC50: > 10000 nM
Second compound 10 µM
  IC50: 7100 nM
[1]
  viability, T/C: 120%
[2]
  viability, T/C: 101%
[3]
  viability, T/C: 106%
[4]
  viability, T/C: 87.6%
[5]
  viability, T/C: 59.3%
[6]
  viability, T/C: 46.9%
[7]
  viability, T/C: 115%
[8]
  viability, T/C: 104%
[9]
  viability, T/C: 95.3%
[10]
  viability, T/C: 85.4%
[11]
  viability, T/C: 75%
[12]
  viability, T/C: 55.3%
[13]
  viability, T/C: 99.3%
[14]
  viability, T/C: 106%
[15]
  viability, T/C: 85.4%
[16]
  viability, T/C: 91.5%
[17]
  viability, T/C: 65.9%
[18]
  viability, T/C: 53.5%
[19]
  viability, T/C: 98.2%
[20]
  viability, T/C: 97.3%
[21]
  viability, T/C: 96.2%
[22]
  viability, T/C: 75.8%
[23]
  viability, T/C: 70.6%
[24]
  viability, T/C: 48.5%
[25]
  viability, T/C: 94.8%
[26]
  viability, T/C: 94.1%
[27]
  viability, T/C: 92.3%
[28]
  viability, T/C: 91.2%
[29]
  viability, T/C: 66%
[30]
  viability, T/C: 50.7%
[31]
  viability, T/C: 89.2%
[32]
  viability, T/C: 80.2%
[33]
  viability, T/C: 93.9%
[34]
  viability, T/C: 72.2%
[35]
  viability, T/C: 66.9%
[36]
  viability, T/C: 43.4%
